Reference: patent US20110224226A1, “COMPOSITIONS AND METHODS FOR INCREASING BLOOD PLATELET LEVELS IN HUMANS” (AKARX, Inc., priority 2006, published 2011)
Read-outs that look alike come from different tables or passages of the source.

Tests used:
[1] = in-vitro plasma protein binding, rabbits; assay type: in vitro ADME; conditions: rabbit, 0.05 to 50 μg/mL
Method: (§1) The in-vitro plasma protein binding of the drug of Formula I was independent of concentration over the concentration range of 0.05 to 50 μg/mL and was 87.2-89.1% in mice; 87.6-89.2% in rats; 88.3-92.0% in rabbits; […] in dogs; 97.0-97.6% in monkeys; and 96.3-96.6% in humans.

[2] = tested on: liver microsomal enzymes; experiment: metabolism by dog liver microsomal enzymes; assay type: in vitro ADME
[3] = biological target: 3A4 (Homo sapiens, UniProt P08684); experiment: inhibition of human liver cytochrome P450 3A4; assay type: in vitro ADME; conditions: human liver cytochrome P450 isoenzyme
[4] = in-vitro plasma protein binding, rats; assay type: in vitro ADME; conditions: rat, 0.05 to 50 μg/mL
Method: as §1

[5] = cardiovascular and respiratory system effects in the conscious dog; assay type: in vivo; conditions: up to a dose of 300 mg/kg
[6] = biological target: 2C9 (Homo sapiens, UniProt P11712); experiment: inhibition of human liver cytochrome P450 2C9; assay type: in vitro ADME; conditions: human liver cytochrome P450 isoenzyme
[7] = Example 2 multi-dose study: pharmacokinetics; assay type: in vivo, human; conditions: for Tmax at 14 days: read-out: mean time to maximum plasma concentration (Tmax); for Cmax at 14 days: read-out: mean maximum plasma concentration (Cmax)
Method: (§2) A double-blind, placebo-controlled, dose rising study was performed in healthy male and female volunteers. Each dose cohort received either placebo or active treatment as an oral suspension once daily for fourteen (14) consecutive days. The dose of study drug was prepared and administered as described in Example 1 above. The doses administered in this multiple dose study were based on the safety and tolerability assessment of the doses administered in Example 1.
(§3) Based on the results of Example 1, the starting dose was 3 mg. Based on the safety and tolerability results from Example 1, the dose was scheduled to be escalated to 10, 20, 50 and 100 mg per day for 14 consecutive days. Successive dose cohorts were not treated until the previous cohort completed 14 days of treatment and the safety follow-up visit on Day 21.

[8] = pharmacokinetics after intravenous and oral administration in dogs; assay type: in vivo; conditions: dog, plasma
Source text: After a single intravenous administration of the drug of Formula I as the monomaleate salt to mice and dogs, plasma concentrations of Formula I decreased in a biphasic manner.

[9] = tested on: platelet count; experiment: Example 2 multi-dose study: pharmacodynamics (platelet count); assay type: in vivo, human
Method: as §2, §3

[10] = biological target: 2C19 (Homo sapiens, UniProt P33261); experiment: inhibition of human liver cytochrome P450 2C19; assay type: in vitro ADME; conditions: human liver cytochrome P450 isoenzyme
[11] = both sexes, human, in vivo, oral, 3 mg once daily, Study Day 14, mean
[12] = both sexes, human, in vivo, oral, 10 mg once daily, Study Day 14, mean
[13] = both sexes, human, in vivo, oral, 20 mg once daily, Study Day 14, simulated data at steady-state

3A4, sequence (P08684 whole entry): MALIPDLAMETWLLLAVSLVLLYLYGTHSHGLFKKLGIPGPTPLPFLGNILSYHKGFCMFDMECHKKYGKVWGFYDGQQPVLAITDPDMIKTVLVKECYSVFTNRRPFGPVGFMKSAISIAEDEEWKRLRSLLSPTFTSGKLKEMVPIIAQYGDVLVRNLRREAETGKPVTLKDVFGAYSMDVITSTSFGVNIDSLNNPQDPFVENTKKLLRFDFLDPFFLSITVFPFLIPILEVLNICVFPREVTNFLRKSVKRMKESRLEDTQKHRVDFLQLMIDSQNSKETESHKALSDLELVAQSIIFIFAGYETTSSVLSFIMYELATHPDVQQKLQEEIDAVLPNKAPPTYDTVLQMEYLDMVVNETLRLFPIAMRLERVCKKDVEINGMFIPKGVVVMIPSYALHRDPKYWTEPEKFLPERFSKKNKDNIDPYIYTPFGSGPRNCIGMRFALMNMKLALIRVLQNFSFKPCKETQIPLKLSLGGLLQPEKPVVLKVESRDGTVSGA
2C19, sequence (P33261 whole entry): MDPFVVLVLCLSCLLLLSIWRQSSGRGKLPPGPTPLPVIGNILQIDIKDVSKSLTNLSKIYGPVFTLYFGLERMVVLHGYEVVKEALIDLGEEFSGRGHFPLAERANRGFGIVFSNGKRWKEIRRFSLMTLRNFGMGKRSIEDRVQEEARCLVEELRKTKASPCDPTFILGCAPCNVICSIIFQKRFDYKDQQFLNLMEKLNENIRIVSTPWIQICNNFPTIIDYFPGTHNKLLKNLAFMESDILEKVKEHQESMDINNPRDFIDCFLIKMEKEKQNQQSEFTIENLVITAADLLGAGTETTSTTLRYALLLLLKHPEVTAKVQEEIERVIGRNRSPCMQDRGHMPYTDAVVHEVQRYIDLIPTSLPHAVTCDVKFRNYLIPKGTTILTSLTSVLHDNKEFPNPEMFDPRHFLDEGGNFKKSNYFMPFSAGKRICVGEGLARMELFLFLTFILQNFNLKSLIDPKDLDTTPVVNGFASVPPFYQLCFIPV
2C9, sequence (P11712 whole entry): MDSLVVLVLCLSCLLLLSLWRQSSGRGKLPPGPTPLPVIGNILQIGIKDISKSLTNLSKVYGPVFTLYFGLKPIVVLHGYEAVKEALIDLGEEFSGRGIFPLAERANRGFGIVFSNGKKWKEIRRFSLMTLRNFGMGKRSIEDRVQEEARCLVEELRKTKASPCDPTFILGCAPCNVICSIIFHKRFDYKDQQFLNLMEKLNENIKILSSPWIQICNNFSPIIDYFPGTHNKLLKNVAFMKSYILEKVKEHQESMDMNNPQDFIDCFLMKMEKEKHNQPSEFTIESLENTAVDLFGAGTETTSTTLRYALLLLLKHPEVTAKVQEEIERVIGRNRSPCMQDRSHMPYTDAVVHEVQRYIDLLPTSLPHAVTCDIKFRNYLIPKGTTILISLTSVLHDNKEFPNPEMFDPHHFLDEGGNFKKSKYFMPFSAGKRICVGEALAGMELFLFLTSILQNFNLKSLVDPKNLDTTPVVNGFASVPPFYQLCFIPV

For `O=C(Nc1nc(-c2cc(Cl)cs2)c(N2CCN(C3CCCCC3)CC2)s1)c1cnc(N2CCC(C(=O)O)CC2)c(Cl)c1` [Formula I, 1-(3-chloro-5-{[4-(4-chlorothiophen-2-yl)-5-(4-cyclohexylpiperazin-1-yl)thiazol-2-yl]carbamoyl}pyridin-2-yl)piperadine-4-carboxylic acid], the fraction unbound [1] was 0.08 to 0.117, the “metabolism by liver microsomal enzymes” value [2] was “does not appear to be metabolized” and the “inhibition of CYP3A4” value [3] was “did not inhibit”. The fraction unbound [4] was 0.108 to 0.124, the “cardiovascular or respiratory system effects” value [5] was “No cardiovascular or respiratory system effects were observed” and the “inhibition of CYP2C9” value [6] was “did not inhibit”. It also gave an AUC(0-t) ([7]; both sexes, human, in vivo, oral, 3 mg, 3 mg once daily, Study Day 1, mean, read-out: AUC0-last) of 235 ng·h/mL, a Tmax ([7]; both sexes, human, in vivo, oral, 3 mg, 3 mg once daily, Study Day 1, median) of 6 h and an AUC(0-t) ([7]; both sexes, human, in vivo, oral, 3 mg, 3 mg once daily, Study Day 14, mean, read-out: AUC0-last) of 659 ng·h/mL. The Tmax ([7]; both sexes, human, in vivo, oral, 3 mg, 3 mg once daily, Study Day 14, median) was 6 h, the AUC(0-t) ([7]; both sexes, human, in vivo, oral, 10 mg, 10 mg once daily, Study Day 1, mean, read-out: AUC0-last) was 841 ng·h/mL and the Tmax ([7]; both sexes, human, in vivo, oral, 10 mg, 10 mg once daily, Study Day 1, median) was 6 h. For the same molecule, the AUC(0-t) ([7]; both sexes, human, in vivo, oral, 10 mg, 10 mg once daily, Study Day 14, mean, read-out: AUC0-last) was 2360 ng·h/mL, the Tmax ([7]; both sexes, human, in vivo, oral, 10 mg, 10 mg once daily, Study Day 14, median) was 4.5 h and the AUC(0-t) ([7]; both sexes, human, in vivo, oral, 20 mg, 20 mg once daily, Study Day 1, mean, read-out: AUC0-last) was 1960 ng·h/mL. For the same molecule, the Tmax ([7]; both sexes, human, in vivo, oral, 20 mg, 20 mg once daily, Study Day 1, median) was 6 h, the Tmax ([7]; both sexes, human, in vivo, oral, 20 mg, 20 mg once daily, Study Day 14, median, simulated data at steady-state) was 6 h and the AUC(0-t) ([7]; both sexes, human, in vivo, oral, 20 mg, 20 mg once daily, Study Day 14, simulated data at steady-state, read-out: AUC0-last) was 3610 ng·h/mL. It also gave an AUC(0-inf) [7, 11] of 804 ng·h/mL, a half-life [7, 11] of 18.2 h and a Cmax ([7]; both sexes, human, in vivo, oral, 3 mg once daily, Study Day 14, mean, read-out: Cmax, ss) of 25.6 ng/mL. It also gave an AUC(0-inf) [7, 12] of 2870 ng·h/mL, a half-life [7, 12] of 18.1 h and a Cmax ([7]; both sexes, human, in vivo, oral, 10 mg once daily, Study Day 14, mean, read-out: Cmax, ss) of 94.1 ng/mL. It also gave an AUC(0-inf) [7, 13] of 7150 ng·h/mL, a half-life [7, 13] of 20.8 h and a Cmax ([7]; both sexes, human, in vivo, oral, 20 mg once daily, Study Day 14, simulated data at steady-state, read-out: Cmax, ss) of 205 ng/mL. The half-life at 14 days ([7]; both sexes, human, in vivo, oral, multi-dose study, independent of dose) was 18 to 21 h, the Cmax ([7]; both sexes, human, in vivo, 3 mg once daily oral suspension, Study Day 1, mean, read-out: Cmax) was 14.8 ng/mL and the Cmax ([7]; both sexes, human, in vivo, 10 mg once daily oral suspension, Study Day 1, mean, read-out: Cmax) was 53.2 ng/mL. The Cmax ([7]; both sexes, human, in vivo, 20 mg once daily oral suspension, Study Day 1, mean, read-out: Cmax) was 121 ng/mL, the AUC(0-t) ([7]; both sexes, human, plasma, oral, 3 mg, 3 mg dose administered over about fourteen (14) days, human, read-out: mean AUC0-last) was about 659 ng·h/mL and the Tmax at 14 days ([7]; both sexes, human, plasma, oral, 3 mg, 3 mg dose administered over about fourteen (14) days, human) was about 6 h. For the same molecule, the AUC(0-t) ([7]; both sexes, human, plasma, oral, 10 mg, 10 mg dose administered over about fourteen (14) days, human, read-out: mean AUC0-last) was about 2360 ng·h/mL, the Tmax at 14 days ([7]; both sexes, human, plasma, oral, 10 mg, 10 mg dose administered over about fourteen (14) days, human) was about 4.4 h and the AUC(0-t) ([7]; both sexes, human, plasma, oral, 20 mg, 20 mg dose administered over about fourteen (14) days, human, Table 3: simulated data at steady-state, read-out: mean AUC0-last) was about 3610 ng·h/mL. The Tmax at 14 days ([7]; both sexes, human, plasma, oral, 20 mg, 20 mg dose administered over about fourteen (14) days, human, Table 3: simulated data at steady-state) was about 5.5 h, the Cmax at 14 days ([7]; both sexes, plasma, oral, 3 mg dose administered over about fourteen (14) days, human) was about 25 ng/mL and the Cmax at 14 days ([7]; both sexes, plasma, oral, 10 mg dose administered over about fourteen (14) days, human) was about 94 ng/mL. The Cmax at 14 days ([7]; both sexes, plasma, oral, 20 mg dose administered over about fourteen (14) days, human, Table 3: simulated data at steady-state) was about 204 ng/mL, the “dose proportionality of Cmax and AUC” value ([7]; following single and repeat administration, 3 mg to 20 mg) was “increased proportionally with respect to dose” and the half-life ([8]; dogs, single intravenous administration as the monomaleate salt, read-out: terminal elimination half-life (t1/2) (converted)) was 2.7 h. The bioavailability ([8]; oral administration, read-out: absolute bioavailability) was 52%, the “dose-concentration-response relationship for changes in platelet count” value ([9]; 3 mg to 20 mg dose range, repeat dosing) was “linear increases in platelet counts over baseline” and the “day by which the revised PD limit (>500,000 platelets) occurred in all six (6) subjects” value ([9]; 20 mg cohort) was 10 to 11 days. The “dose cohort in which the original PD limit (five subjects with >50% increase in platelet count) was reached” value ([9]; once daily dosing) was 10 mg, the “platelet counts following repeat administration” value ([9]; repeat administration of 10 mg and 20 mg) was “Statistically significant increases in platelet counts” and the “inhibition of CYP2C19” value [10] was “did not inhibit”.
